Experimental data: US5716797A, “Stable two-part reagent for the measurement of creatine kinase activity” (Wako Pure Chemical Industries, Ltd., priority 1995, dated 1998)

Legend:
[1] = Solubility of SH compounds in the enzyme solution; conditions: as CK reactivator in the enzyme solution
[2] = tested on: creatine kinase (CK) in human serum; assay: CK activity measured with enzyme and substrate solutions stored at 10° C. for up to 7 months (Example 2 / Comparative Example 2); assay type: biochemical; conditions: for relative value of CK activity: enzyme solution prepared at the time of use = 100%
Description: An enzyme solution was prepared in the same manner as in Example 1 by use of the same reagents as in Example 1 except for using 100 mM of TG in place of the CK reactivator(s) used in Example 1.
Different 10 fresh human serum samples were used for different measuring operations.
CK activity was measured by the same procedure as described in Example 1 except for using the above-mentioned enzyme solution and substrate solution, both solutions stored at 10° C. for a predetermined time, and each of the above-mentioned samples.
An enzyme solution was prepared in the same manner as in Example 1 by use of the same reagents as in Example 1 except for using 26 mM of NAC in place of the CK reactivator(s) used in Example 1.
CK activity was measured by the same procedure as described in Example 1 except for using the above-mentioned enzyme solution and substrate solution, both solutions stored at 10° C. for a predetermined period, and each of the above-mentioned samples.

[3] = tested on: creatine kinase (CK) in human serum; assay: CK activity measured with enzyme solutions containing SH compounds as CK reactivator, fresh and after 1 month of storage (Example 1 / Comparative Example 1); assay type: biochemical; conditions: for CK activity value, Average: average of 5 samples; for CK activity, relative value: NAC just after preparation = 100%
Description: The resulting solution was adjusted to pH 6.7 with sodium hydroxide and stored at a predetermined temperature for a predetermined period. The thus obtained solution were used as enzyme solutions.
Five fresh human serum samples were used.
To 8 μl of each sample was added 320 μl of each enzyme solution, followed by preincubation for 5 minutes. Then, 80 μl of the substrate solution was added to initiate the reaction and the change of absorbance per minute was measured for 3 minutes from 2 minutes after the addition of the substrate solution. The CK activity value was calculated from the molecular extinction coefficient of the NADPH produced.
As a measuring apparatus, an Autoanalyzer Hitachi Model 7150 was used, and the measurement was carried out at 37° C. by use of dual wavelength (λ1 =405 nm, λ2 =340 nm).
Enzyme solutions were prepared in the same manner as in Example 1 by use of the same reagents as in Example 1 except for using a predetermined concentration(s) of one or two SH compounds properly selected from the above-mentioned CK reactivators, in place of the CK reactivator(s) used in Example 1.
CK activity was measured in the same manner as in Example 1.

[4] = enzyme solution prepared at the time of use, 1 month measurement, 10 samples
[5] = enzyme solution prepared at the time of use, 3 month measurement, 10 samples
[6] = enzyme solution prepared at the time of use, 6 month measurement, 10 samples
[7] = enzyme solution prepared at the time of use, 7 month measurement, 10 samples
[8] = just after preparation, average of 10 human serum samples, TG 100 mM or NAC 26 mM
[9] = solutions stored at 10° C. for 1 month, 10 samples
[10] = solutions stored at 10° C. for 3 month, 10 samples
[11] = solutions stored at 10° C. for 6 month, 10 samples
[12] = solutions stored at 10° C. for 7 month, 10 samples
[13] = Sample 1, enzyme solution just after preparation, TG 100 mM, 2ME 26 mM, 2MES 26 mM, NAC 26 mM
[14] = Sample 1, enzyme solution stored at 10° C. for 1 month, TG 100, 2ME 26, 2MES 26, NAC 26, L-cysteine 6.5, GSH 12, TDG 5, DTT 6.5 mM
[15] = Sample 1, enzyme solution stored at 20° C. for 1 month, TG 100, 2ME 26, 2MES 26, NAC 26, L-cysteine 6.5, GSH 12, TDG 5, DTT 6.5 mM
[16] = Sample 2, enzyme solution just after preparation, TG 100 mM, 2ME 26 mM, 2MES 26 mM, NAC 26 mM
[17] = Sample 2, enzyme solution stored at 10° C. for 1 month, TG 100, 2ME 26, 2MES 26, NAC 26, L-cysteine 6.5, GSH 12, TDG 5, DTT 6.5 mM
[18] = Sample 2, enzyme solution stored at 20° C. for 1 month, TG 100, 2ME 26, 2MES 26, NAC 26, L-cysteine 6.5, GSH 12, TDG 5, DTT 6.5 mM
[19] = Sample 3, enzyme solution just after preparation, TG 100 mM, 2ME 26 mM, 2MES 26 mM, NAC 26 mM
[20] = Sample 3, enzyme solution stored at 10° C. for 1 month, TG 100, 2ME 26, 2MES 26, NAC 26, L-cysteine 6.5, GSH 12, TDG 5, DTT 6.5 mM
[21] = Sample 3, enzyme solution stored at 20° C. for 1 month, TG 100, 2ME 26, 2MES 26, NAC 26, L-cysteine 6.5, GSH 12, TDG 5, DTT 6.5 mM
[22] = Sample 4, enzyme solution just after preparation, TG 100 mM, 2ME 26 mM, 2MES 26 mM, NAC 26 mM
[23] = Sample 4, enzyme solution stored at 10° C. for 1 month, TG 100, 2ME 26, 2MES 26, NAC 26, L-cysteine 6.5, GSH 12, TDG 5, DTT 6.5 mM
[24] = Sample 4, enzyme solution stored at 20° C. for 1 month, TG 100, 2ME 26, 2MES 26, NAC 26, L-cysteine 6.5, GSH 12, TDG 5, DTT 6.5 mM
[25] = Sample 5, enzyme solution just after preparation, TG 100 mM, 2ME 26 mM, 2MES 26 mM, NAC 26 mM
[26] = Sample 5, enzyme solution stored at 10° C. for 1 month, TG 100, 2ME 26, 2MES 26, NAC 26, L-cysteine 6.5, GSH 12, TDG 5, DTT 6.5 mM
[27] = Sample 5, enzyme solution stored at 20° C. for 1 month, TG 100, 2ME 26, 2MES 26, NAC 26, L-cysteine 6.5, GSH 12, TDG 5, DTT 6.5 mM
[28] = enzyme solution just after preparation, TG 100 mM, 2ME 26 mM, 2MES 26 mM, NAC 26 mM
[29] = enzyme solution stored at 10° C. for 1 month, TG 100, 2ME 26, 2MES 26, NAC 26, L-cysteine 6.5, GSH 12, TDG 5, DTT 6.5 mM
[30] = enzyme solution stored at 20° C. for 1 month, TG 100, 2ME 26, 2MES 26, NAC 26, L-cysteine 6.5, GSH 12, TDG 5, DTT 6.5 mM
[31] = enzyme solution just after preparation
[32] = enzyme solution stored at 10° C. for 1 month
[33] = enzyme solution stored at 20° C. for 1 month

Structure (SMILES) | average of CK activity values [2, 4] [IU/l.] | average of CK activity values [2, 5] [IU/l.] | average of CK activity values [2, 6] [IU/l.] | average of CK activity values [2, 7] [IU/l.] | average of CK activity values [2, 8] [IU/l.] | average of CK activity values [2, 9] [IU/l.] | average of CK activity values [2, 10] [IU/l.] | average of CK activity values [2, 11] [IU/l.] | average of CK activity values [2, 12] [IU/l.] | relative value of CK activity ([2]; stored at 10° C. for 1 month) [%] | relative value of CK activity ([2]; stored at 10° C. for 3 month) [%] | relative value of CK activity ([2]; stored at 10° C. for 6 month) [%] | relative value of CK activity ([2]; stored at 10° C. for 7 month) [%] | CK activity value [3, 13] [IU/l] | CK activity value [3, 14] [IU/l] | CK activity value [3, 15] [IU/l] | CK activity value [3, 16] [IU/l] | CK activity value [3, 17] [IU/l] | CK activity value [3, 18] [IU/l] | CK activity value [3, 19] [IU/l] | other results
Nc1cc(O)nc(S)n1.O [AHMP, 4-amino-6-hydroxy-2-mercaptopyrimidine monohydrate] |  |  |  |  |  |  |  |  |  |  |  |  |  |  |  |  |  |  |  |  | solubility [1]: low solubility
CC(=O)N[C@@H](CS)C(=O)O [NAC, N-acetylcysteine] | 196 | 192 | 162 | 192 | 234 | 190 | 146 | 64 | 62 | 96.9 | 76.0 | 39.5 | 32.3 | 183 | 184 | 166 | 544 | 550 | 499 | 151 | measured value of CK activity after storage ([2]; after 3 months of storage at 10° C.): markedly lowered; CK activity value [3, 20]: 152 IU/l; CK activity value [3, 21]: 136 IU/l; CK activity value [3, 22]: 56 IU/l; CK activity value [3, 23]: 55 IU/l; CK activity value [3, 24]: 50 IU/l; CK activity value [3, 25]: 87 IU/l; CK activity value [3, 26]: 88 IU/l; CK activity value [3, 27]: 78 IU/l; CK activity value, Average [3, 28]: 204 IU/l; CK activity value, Average [3, 29]: 206 IU/l; CK activity value, Average [3, 30]: 186 IU/l; CK activity, relative value [3, 31]: 100.0%; CK activity, relative value [3, 32]: 101.0%; CK activity, relative value [3, 33]: 91.2%
OCC(O)CS (centres unmarked) [TG, thioglycerol] | 204 | 200 | 168 | 192 | 240 | 202 | 198 | 168 | 190 | 99.0 | 99.0 | 100.0 | 99.0 | 184 | 183 | 180 | 553 | 556 | 549 | 151 | retaining CK-reactivating ability for a long period of time in an aqueous solution [3]: capable of retaining CK-reactivating ability for a long period of time; CK activity value [3, 20]: 154 IU/l; CK activity value [3, 21]: 152 IU/l; CK activity value [3, 22]: 58 IU/l; CK activity value [3, 23]: 57 IU/l; CK activity value [3, 24]: 57 IU/l; CK activity value [3, 25]: 88 IU/l; CK activity value [3, 26]: 88 IU/l; CK activity value [3, 27]: 88 IU/l; CK activity value, Average [3, 28]: 207 IU/l; CK activity value, Average [3, 29]: 208 IU/l; CK activity value, Average [3, 30]: 206 IU/l; CK activity, relative value [3, 31]: 101.4%; CK activity, relative value [3, 32]: 101.9%; CK activity, relative value [3, 33]: 100.9%
